Experimental data published in patent publication EP2982368A1, “Small molecule compounds displacing focal adhesion core components” (Universität Konstanz, priority 2014, dated 2016).
“Also recorded” adds a separate entry of the source.

What was measured:
FAK/Paxillin = target: T1, FAK/Paxillin (Mus musculus, UniProt P34152+Q8VI36); experiment: FAK/Paxillin displacement by structurally related compounds (FootLocker series, confocal microscopy); type: cell-based
T1 construct: expressed in transfected cells; host or cells: mouse fibroblasts stably expressing GFP-FAK
Method: To determine whether compounds structurally related to Mb31 and Mb36 are likewise suitable to interfere with FAK localization at focal adhesions, mouse fibroblasts stably expressing GFP-FAK were treated for 30 min with 1, 10 or 20 µM of the following compounds: trans-3-hydroxy-β-nitrostyrene (THBN), trans-4-Chloro-β-nitrostyrene (T4CN), trans-β-nitrostyrene (TBN), 4-chlorocinnamic acid (4CA), and trans-3-(4-bromothiophen-2-yl)acrylic acid (T34BA) (Figures 16 and 17). The cells were analyzed by confocal microscopy for GFP-FAK localization. DMSO treatment served as a vehicle control. […] Additional substituents at the aromatic structures, such as halogen atoms or hydroxy groups may contribute to the reactivity of the compound, but are not essential. Based on these findings, the inventors have extended their structure activity-relationship studies and synthesized additional related compounds, which, similar to Mb31, displace FAK and paxillin at concentrations below 10µM (++), displace FAK and paxillin at concentrations above 10 µM (+), or lack FAK and paxillin displacing activity (-). All these substances were then also nicknamed in the FLocker terminology, resulting in FLocker1 - FLocker24 (Table 2). Table 2: Overview of FootLocker nomenclature, their chemical notation/structure and the activity towards FAK/Paxillin displacement

[1] = tested on: GFP-FAK mouse embryonic fibroblasts; experiment: MTT assay (cell viability); type: cell-based; conditions: 5 h compound exposure
Method: Image J was used to automatically quantify FAK-containing focal adhesions due to local maxima of fluorescence intensity in the GFP-channel (5 to 70 pixel). The number of cells was automatically counted in the Hoechst channel. To test reproducibility of the system 40 control wells were quantified wherein four positions for each well were imaged. […] GFP-FAK mouse embryonic fibroblasts were seeded on fibronectin and incubated for 1 h with the indicated concentrations of the small compounds, respectively. […] GFP-FAK mouse embryonic fibroblasts were seeded on fibronectin and serum-starved overnight. The indicated concentrations of Mb31 were applied for 30 min. Cells were lysed and analyzed for paxillin and FAK protein level as well as FAK Tyr397 phosphorylation. […] The purified kinase domain of FAK was incubated with increasing amounts of Mb31 for 1 h at 30°C together with poly-Glu-Tyr as a FAK substrate. […] Cell viability was assessed by MTT assay. […] Migration was recorded from cells that were cultured without serum (A), with serum (B) or with serum in the presence of 3 µM Mb31 (C). […] Mouse embryonic fibroblasts (MEFs) were transfected with talin-mCherry and talin dynamics analyzed in focal adhesions using fluorescence recovery after photobleaching (FRAP). […] (C) Wound closure was microscopically analyzed and evaluated using ImageJ software. […]

T1 sequence (P34152 whole entry): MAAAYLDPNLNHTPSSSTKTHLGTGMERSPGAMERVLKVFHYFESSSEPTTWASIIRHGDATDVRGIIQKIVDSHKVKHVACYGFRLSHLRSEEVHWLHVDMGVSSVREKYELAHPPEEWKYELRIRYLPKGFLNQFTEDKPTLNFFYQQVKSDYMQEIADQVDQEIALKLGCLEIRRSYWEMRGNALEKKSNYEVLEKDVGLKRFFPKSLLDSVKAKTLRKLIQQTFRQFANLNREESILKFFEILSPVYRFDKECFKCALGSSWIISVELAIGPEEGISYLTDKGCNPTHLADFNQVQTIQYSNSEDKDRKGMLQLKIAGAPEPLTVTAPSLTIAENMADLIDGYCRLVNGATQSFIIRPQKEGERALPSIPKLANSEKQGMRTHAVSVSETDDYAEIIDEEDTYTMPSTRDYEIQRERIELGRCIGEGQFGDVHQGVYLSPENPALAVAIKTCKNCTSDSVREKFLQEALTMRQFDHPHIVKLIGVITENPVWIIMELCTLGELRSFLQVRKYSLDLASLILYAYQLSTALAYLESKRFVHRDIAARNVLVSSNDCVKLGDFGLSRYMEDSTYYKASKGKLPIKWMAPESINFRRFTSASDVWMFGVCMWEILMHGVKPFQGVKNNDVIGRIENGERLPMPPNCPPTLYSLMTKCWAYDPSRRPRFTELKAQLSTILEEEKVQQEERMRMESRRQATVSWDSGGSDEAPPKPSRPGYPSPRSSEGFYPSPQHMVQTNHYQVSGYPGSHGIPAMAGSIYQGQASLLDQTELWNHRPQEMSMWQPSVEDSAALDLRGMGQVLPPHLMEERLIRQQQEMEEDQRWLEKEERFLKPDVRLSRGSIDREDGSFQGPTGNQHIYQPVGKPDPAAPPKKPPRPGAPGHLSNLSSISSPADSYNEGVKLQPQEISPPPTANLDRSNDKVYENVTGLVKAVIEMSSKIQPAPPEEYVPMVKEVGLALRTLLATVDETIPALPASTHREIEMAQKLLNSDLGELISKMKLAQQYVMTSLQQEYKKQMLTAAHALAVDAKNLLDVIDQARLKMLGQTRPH
T1 sequence (Q8VI36 whole entry): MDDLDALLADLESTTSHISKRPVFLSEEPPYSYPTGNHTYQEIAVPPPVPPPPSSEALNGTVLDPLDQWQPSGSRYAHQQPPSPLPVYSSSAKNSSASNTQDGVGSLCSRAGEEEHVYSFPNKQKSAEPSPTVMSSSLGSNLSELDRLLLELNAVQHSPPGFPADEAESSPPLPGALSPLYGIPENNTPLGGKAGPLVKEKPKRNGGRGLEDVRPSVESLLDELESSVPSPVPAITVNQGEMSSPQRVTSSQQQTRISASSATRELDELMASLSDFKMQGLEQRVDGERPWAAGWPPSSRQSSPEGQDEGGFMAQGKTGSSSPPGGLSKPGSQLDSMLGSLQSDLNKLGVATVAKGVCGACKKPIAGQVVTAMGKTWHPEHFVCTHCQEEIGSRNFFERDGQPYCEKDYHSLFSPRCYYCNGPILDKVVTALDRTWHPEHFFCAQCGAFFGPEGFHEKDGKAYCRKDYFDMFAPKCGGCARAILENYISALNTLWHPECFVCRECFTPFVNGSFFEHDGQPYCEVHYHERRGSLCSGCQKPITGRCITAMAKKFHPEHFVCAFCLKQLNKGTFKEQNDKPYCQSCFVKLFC

| Structure (SMILES) | compounds showing the most prominent effect on protein-protein interactions at focal adhesion site (FAK/Paxillin) | disruption of protein-protein interactions at focal adhesion site (FAK/Paxillin) | cell viability / toxicity ([1]; listed as Mb31) | cell viability / toxicity [1] |
| --- | --- | --- | --- | --- |
| O=[N+]([O-])C=Cc1cc(Br)cs1 [FootLocker 1, 4-bromo-2-(2-nitrovinyl)thiophene] | most prominent effect | efficiently disrupt protein-protein interactions at focal adhesion site | do not impair cell viability; also recorded: minor toxicity |  |
| Nc1ccc(SC(C[N+](=O)[O-])c2ccc(Cl)cc2)cc1 (stereo not drawn) [FootLocker 2, 4-{[1-(4-chlorophenyl)-2-nitroethyl]thio}aniline] | most prominent effect | efficiently disrupt protein-protein interactions at focal adhesion site |  | do not impair cell viability |
